Test results from US10654884B2 (Vitae Pharmaceuticals, Inc., priority 2014, dated 2020).
pIC50: −log10 of the molar value.

Legend:
[1] = target: T1, human CD73 (Homo sapiens, UniProt P21589); assay: Inhibition of 5′-Nucleotidase Activity of CD73 (Assay 1); assay type: biochemical; details: human CD73 4 ng/ml, 50 μM CMP, 20 min at RT, malachite green readout; read-out: Assay 1: IC50, inhibition of 5′-nucleotidase activity of CD73
T1 construct: purchased R&D Systems 5795-EN-010
T1 sequence (P21589 27-549): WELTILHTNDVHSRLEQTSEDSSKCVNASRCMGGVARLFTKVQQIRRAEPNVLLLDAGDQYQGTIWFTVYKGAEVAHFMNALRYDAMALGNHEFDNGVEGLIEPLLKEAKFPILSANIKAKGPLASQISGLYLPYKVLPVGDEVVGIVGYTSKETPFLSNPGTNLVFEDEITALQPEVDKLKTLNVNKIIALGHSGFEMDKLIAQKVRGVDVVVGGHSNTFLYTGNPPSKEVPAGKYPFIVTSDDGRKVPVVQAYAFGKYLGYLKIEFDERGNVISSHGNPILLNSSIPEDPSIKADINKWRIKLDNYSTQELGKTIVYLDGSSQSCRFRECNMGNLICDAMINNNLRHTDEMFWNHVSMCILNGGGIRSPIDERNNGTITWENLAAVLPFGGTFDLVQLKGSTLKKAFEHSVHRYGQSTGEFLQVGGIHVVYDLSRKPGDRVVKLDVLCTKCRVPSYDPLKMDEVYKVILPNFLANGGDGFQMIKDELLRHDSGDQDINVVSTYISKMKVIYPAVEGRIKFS
Experimental: Inhibition of 5′-Nucleotidase Activity of CD73 (Assay 1)
Compounds of the present invention were tested for the ability to inhibit CD73 enzyme activity. Tested compounds were dissolved in DMSO (50× final concentration), and 3.2 μL of the solutions added to 96-well polystyrene plates. To these wells were added, 100 μL of human CD73 (R&D Systems Cat. No. 5795-EN-010) and 57 μL of cytidine-5′-monophosphate (CMP) solutions in assay buffer (25 mM Tris-HCl, pH 7.4, 0.005% Brij-35) were added to achieve final concentrations in the assay of 4 ng/ml CD73 and 50 μM of CMP. The assay mixture was incubated for 20 min at RT. The reaction was stopped by addition of 40 μL of malachite green reagent which was prepared by mixing together 10 ml 2M H2SO4, 2.5 ml of 15% ammonium molybdate and 0.2 ml of 11% Tween-20. The mixture was agitated vigorously for 10 min at RT, and absorbance at 620 nm was determined on a microplate spectrophotometer. […] The IC50 values were derived using a non-linear 4 parameter logistic model (XLFit software, IDBS) and correspond to the inflection points on dose-response curves.

[2] = target: T2, CD73 on U138 neuroglioma cells (Homo sapiens, UniProt P21589); assay: Inhibition of Ecto-5′-Nucleotidase Activity in U138 Neuroglioma Cells (Assay 2); assay type: cell-based; details: 50 μM CMP, 2 hr at 37° C., malachite green readout, read-out: Assay 2: IC50, inhibition of ecto-5′-nucleotidase activity in U138 neuroglioma cells
T2 construct: U138 neuroglioma cells, which express CD73 on their surface; endogenous in cells; host or cells: U138 neuroglioma cells (ATCC)
T2 sequence (P21589 27-549): T1 sequence (P21589 27-549)
Experimental: Inhibition of Ecto-5′-Nucleotidase Activity in U138 Neuroglioma Cells (Assay 2)
U138 cells were obtained from the American Type Culture Collection (ATCC) (Manassas, Va.), and cultured in complete growth media (DMEM, 10% FBS, 1 mM L-glutamine, 100 U penicillin-streptomycin) at 37° C., 5% CO2. The day before the experiment, cells were seeded at 2,500 cells/well in 100 μL of complete media into 96-well plates. Cells were washed twice with 200 μL of assay buffer (20 mM HEPES, pH 7.4, 137 mM NaCl, 5.4 mM KCl, 1.3 mM CaCl2, 4.2 mM NaHCO3, 1 mg/mL glucose) to remove residual inorganic phosphate. After washing, assays contained serial dilutions of test compounds and 50 μM of cytidine-5′-monophosphate (CMP) in a total volume of 200 μL of assay buffer, with a final DMSO concentration ≤0.1%. After 2 hr at 37° C., 5% CO2, 100 μL of supernatant was removed from the cells and the concentration of inorganic phosphate was determined using malachite green reagent. IC50 values for test compounds were determined from nonlinear regression fits of the data using XLfit (IDBS).

Compound | pIC50 [1] | pIC50 [2]
CS(=O)(=O)C(OC[C@H]1O[C@@H](n2cnc3c(N)nc(Cl)nc32)[C@H](O)[C@@H]1O)P(=O)(O)O (single isomer, unassigned) [Example 10] | 6.00 to 7.00 | 6.00 to 7.00
CCOC(=O)[C@H](OC[C@H]1O[C@@H](n2cnc3c(N)nc(SCC)nc32)[C@H](O)[C@@H]1O)P(=O)(O)O (single isomer, unassigned) [Example 44] | < 6.00 | < 6.00
CCOC(=O)[C@H](OC[C@H]1O[C@@H](n2cnc3c(NC(=O)c4ccccc4)nc(Cl)nc32)[C@H](O)[C@@H]1O)P(=O)(O)O (single isomer, unassigned) [Example 36] | > 7.00 | 6.00 to 7.00
CCOC(=O)[C@H](OC[C@H]1O[C@@H](n2cnc3c(NC)nc(Cl)nc32)[C@H](O)[C@@H]1O)P(=O)(O)O (single isomer, unassigned) [Example 23] | > 7.00 | > 7.00
CCOC(=O)[C@H](OC[C@H]1O[C@@H](n2cnc3c(C)nc(Cl)nc32)[C@H](O)[C@@H]1O)P(=O)(O)O (single isomer, unassigned) [Example 28] | > 7.00 | > 7.00
O=C(Nc1nc(I)nc2c1ncn2[C@@H]1O[C@H](COC(C(=O)O)P(=O)(O)O)[C@@H](O)[C@H]1O)c1ccccc1 (stereo partly drawn) [Example 58, 2-(((2R,3S,4R,5R)-5-(6-benzamido-2-iodo-9H-purin-9-yl)-3,4-dihydroxytetrahydrofuran-2-yl)methoxy)-2-phosphonoacetic acid] | > 7.00 | 6.00 to 7.00
CCOC(=O)[C@H](OC[C@H]1O[C@@H](n2cnc3c(OCC)nc(Cl)nc32)[C@H](O)[C@@H]1O)P(=O)(O)O (single isomer, unassigned) [Example 27] | > 7.00 | 6.00 to 7.00
CCOC(=O)[C@@H](OC[C@H]1O[C@@H](n2cnc3c(N)nc(Cc4ccccc4)nc32)[C@H](O)[C@@H]1O)P(=O)(O)O (single isomer, unassigned) [Example 39a] | < 6.00 | < 6.00
CCOC(=O)[C@H](OC[C@H]1O[C@@H](n2cnc3c(N)nc(C4CC4)nc32)[C@H](O)[C@@H]1O)P(=O)(O)O (single isomer, unassigned) [Example 50] | 6.00 to 7.00 | < 6.00
CCOC(=O)[C@@H](OC[C@H]1O[C@@H](n2cnc3c(NC(=O)c4ccccc4)nc(Cl)nc32)[C@H](O)[C@@H]1O)P(=O)(O)O (single isomer, unassigned) [Example 36a] | 6.00 to 7.00 | < 6.00

Continued, values first:

pIC50 [1] | pIC50 [2] | Compound
> 7.00 | > 7.00 | CCOC(=O)C(OC[C@H]1C[C@@H](n2cnc3c(N)nc(Cl)nc32)[C@H](O)[C@@H]1O)P(=O)(O)O (single isomer, unassigned) [Example 76]
> 7.00 | 6.00 to 7.00 | CS(=O)(=O)c1ccccc1CC(OC[C@H]1O[C@@H](n2cnc3c(N)nc(Cl)nc32)[C@H](O)[C@@H]1O)(C(=O)O)C(=O)O [Example 86, 2-(((2R,3S,4R,5R)-5-(6-amino-2-chloro-9H-purin-9-yl)-3,4-dihydroxytetrahydrofuran-2-yl)methoxy)-2-(2-(methylsulfonyl)benzyl)malonic acid]
6.00 to 7.00 | < 6.00 | CC(C)(C)OC(=O)C(OC[C@H]1C[C@@H](n2cnc3c(N)nc(Cl)nc32)[C@H](O)[C@@H]1O)P(=O)(O)O (single isomer, unassigned) [Example 78a]
> 7.00 | > 7.00 | Nc1nc(Cl)nc2c1ncn2[C@@H]1O[C@H](COC(Cc2ccccn2)(C(=O)O)C(=O)O)[C@@H](O)[C@H]1O [Example 93, 2-(((2R,3S,4R,5R)-5-(6-amino-2-chloro-9H-purin-9-yl)-3,4-dihydroxytetrahydrofuran-2-yl)methoxy)-2-(pyridin-2-ylmethyl)malonic acid]
